# Measurements published in ChEMBL document CHEMBL1201862, “PubChem BioAssay data set” (2004).
# The source made the active and inactive calls.
# What was measured:
# [1] = potency of ADAM10 substrate cleavage blockers – biochemical, QFRET, dose response (AID 743254);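 note: ADAM10 enzyme with the DM2 quenched FRET peptide as substrate; EDANS fluorescence gain as the protease cuts the substrate; inhibitor potency against ADAM10 proteolytic activity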
# [2] = general mammalian cell viability loss – inhibitor set, cherry-pick, set 2, cytotoxicity control for miR-122 modulator project, dose response (AID 720697); type: functional, cell-based
# [3] = biological target: T1, Cysteine protease ATG4B (Homo sapiens, UniProt Q9Y4P1); type: functional;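 note: Fluorescence-based dose-response confirmation assay measuring inhibition of ATG4B activity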
# T1 sequence (Q9Y4P1 whole entry): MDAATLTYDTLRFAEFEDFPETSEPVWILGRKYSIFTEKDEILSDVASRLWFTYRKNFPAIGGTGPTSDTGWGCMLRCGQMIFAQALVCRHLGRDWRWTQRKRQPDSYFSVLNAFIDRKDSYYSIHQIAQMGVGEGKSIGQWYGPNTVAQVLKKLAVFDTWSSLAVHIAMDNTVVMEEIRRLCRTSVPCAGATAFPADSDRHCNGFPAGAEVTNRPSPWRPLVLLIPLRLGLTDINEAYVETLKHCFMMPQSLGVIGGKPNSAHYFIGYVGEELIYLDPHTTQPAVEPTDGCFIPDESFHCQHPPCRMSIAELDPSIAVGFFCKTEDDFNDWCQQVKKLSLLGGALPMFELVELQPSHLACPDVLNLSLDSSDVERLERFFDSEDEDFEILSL
# [4] = biological target: T2, Adenosylmethionine-8-amino-7-oxononanoate aminotransferase (Mycobacterium tuberculosis, UniProt P9WQ81); assay: Mycobacterium tuberculosis BioA enzyme inhibitor Measured in Biochemical System Using Plate Reader - 2163-02_Inhibitor_Dose_CherryPick_Activity.; type: functional, Mycobacterium tuberculosis UT205
# T2 sequence (P9WQ81 whole entry): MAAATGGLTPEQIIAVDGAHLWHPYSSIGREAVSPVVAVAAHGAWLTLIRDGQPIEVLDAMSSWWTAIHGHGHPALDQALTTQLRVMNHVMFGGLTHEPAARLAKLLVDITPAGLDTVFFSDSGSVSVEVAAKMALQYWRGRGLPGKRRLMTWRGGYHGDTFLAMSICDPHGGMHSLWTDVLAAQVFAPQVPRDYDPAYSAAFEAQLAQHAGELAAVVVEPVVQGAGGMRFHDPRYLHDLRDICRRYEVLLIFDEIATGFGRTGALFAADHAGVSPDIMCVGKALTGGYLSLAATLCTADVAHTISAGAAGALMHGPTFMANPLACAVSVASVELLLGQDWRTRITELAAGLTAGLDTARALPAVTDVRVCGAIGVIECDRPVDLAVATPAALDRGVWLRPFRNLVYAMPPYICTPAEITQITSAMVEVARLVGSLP
# [5] = biological target: Phospholipase A2 (Homo sapiens, UniProt P04054); type: functional;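 note: confirmatory dose-response counterscreen on phospholipase A2, testing hits that came from an ultra-high-throughput screen for ATG4B inhibitors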
# Chain of Phospholipase A2 (P04054 whole entry): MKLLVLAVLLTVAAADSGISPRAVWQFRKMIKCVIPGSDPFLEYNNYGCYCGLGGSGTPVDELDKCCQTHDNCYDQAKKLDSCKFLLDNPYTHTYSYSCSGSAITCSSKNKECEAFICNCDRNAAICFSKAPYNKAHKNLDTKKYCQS
# [6] = biological target: T3, Beta-lactamase (Pseudomonas aeruginosa, UniProt Q79MP6); assay: inhibition of IMP-1 beta-lactamase activity – biochemical, epi-absorbance, selectivity assay for VIM-2 inhibitor project, dose response (AID 1920)
# T3 sequence (Q79MP6 whole entry): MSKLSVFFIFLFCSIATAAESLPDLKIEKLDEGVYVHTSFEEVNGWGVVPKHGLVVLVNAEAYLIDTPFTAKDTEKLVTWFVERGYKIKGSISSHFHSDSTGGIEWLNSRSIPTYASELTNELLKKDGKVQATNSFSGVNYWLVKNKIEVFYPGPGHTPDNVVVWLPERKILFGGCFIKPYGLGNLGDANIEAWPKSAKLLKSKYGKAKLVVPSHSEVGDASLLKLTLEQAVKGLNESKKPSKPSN
# [7] = biological target: Beta-lactamase (Salmonella choleraesuis (strain SC-B67), UniProt Q5J463); assay: Epi-absorbance-based counterscreen for selective VIM-2 inhibitors: dose response biochemical high throughput screening assay to identify inhibitors of TEM-1 serine-beta-lactamase.
# Chain of Beta-lactamase (Salmonella choleraesuis (strain SC-B67), UniProt Q5J463) (Q5J463 whole entry): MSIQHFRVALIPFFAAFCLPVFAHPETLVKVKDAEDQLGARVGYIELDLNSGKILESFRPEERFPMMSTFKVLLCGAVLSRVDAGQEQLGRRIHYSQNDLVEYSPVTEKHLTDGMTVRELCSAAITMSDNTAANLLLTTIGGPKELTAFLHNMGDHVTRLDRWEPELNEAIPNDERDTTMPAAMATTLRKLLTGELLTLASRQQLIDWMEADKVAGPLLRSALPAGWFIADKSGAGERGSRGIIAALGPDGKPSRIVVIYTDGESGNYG
# [8] = biological target: T3, Beta-lactamase; assay: […] counterscreen for selective VIM-2 inhibitors: dose response biochemical high throughput screening assay to identify inhibitors of IMP-1 metallo-beta-lactamase.
# [9] = Luminescence Cell-Based Dose Confirmation HTS to Identify Activators of 5'UTR Stem-Loop Driven Alpha-Synuclein mRNA Translation in H4 Neuroglioblastoma Cells. [Related pubchem assays: 1829 (Project Summary), 1814 (Primary HTS)]; type: functional
# [10] = biological target: T4, Sentrin-specific protease 8 (Homo sapiens, UniProt Q96LD8); type: functional
# T4 sequence (Q96LD8 whole entry): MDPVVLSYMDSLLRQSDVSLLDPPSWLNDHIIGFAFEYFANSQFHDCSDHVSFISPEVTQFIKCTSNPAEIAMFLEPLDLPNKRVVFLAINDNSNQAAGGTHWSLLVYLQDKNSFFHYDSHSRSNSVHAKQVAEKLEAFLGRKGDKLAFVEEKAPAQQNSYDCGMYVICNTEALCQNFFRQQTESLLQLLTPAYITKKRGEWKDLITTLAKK
# [11] = biological target: T4, Sentrin-specific protease 8; type: functional; remark: listed apart in the source
# [12] = Luminescence Cell-Based Dose Response HTS to Identify Activators of Luciferase Translation or Activity in H4 […] Cells. [Related pubchem assays: 1829 (Project Summary), 1814 (Primary HTS)]; type: functional
# [13] = test system: H4; assay: Luminescence Cell-Based Dose Response HTS to Identify Activators of 5'UTR Stem-Loop Driven Prion Protein mRNA Translation in H4 Neuroglioblastoma Cells. [Related pubchem assays: 1829 (Project Summary), 1814 (Primary HTS)]; type: functional; settings: Homo sapiens
# [14] = biological target: T5, Trace amine-associated receptor 1 (Homo sapiens, UniProt Q96RJ0); assay: Counterscreen for agonists of the human trace amine associated receptor 1 (hTAAR1): Fluorescence-based cell-based high throughput dose response assay to identify hTAAR1 agonist that also desensitize TAAR1 receptor response.; type: functional
# T5 sequence (Q96RJ0 whole entry): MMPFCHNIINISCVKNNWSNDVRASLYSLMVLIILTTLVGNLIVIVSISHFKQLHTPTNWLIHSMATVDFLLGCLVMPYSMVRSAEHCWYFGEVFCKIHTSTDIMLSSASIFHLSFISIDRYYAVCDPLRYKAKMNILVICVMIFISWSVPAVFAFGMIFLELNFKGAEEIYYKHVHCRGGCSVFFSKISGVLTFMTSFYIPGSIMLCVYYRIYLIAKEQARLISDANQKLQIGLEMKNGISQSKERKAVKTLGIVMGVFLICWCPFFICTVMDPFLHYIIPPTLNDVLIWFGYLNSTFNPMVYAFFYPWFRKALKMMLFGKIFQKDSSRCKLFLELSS
# [15] = cells; type: functional, cell-based
# [16] = biological target: T5, Trace amine-associated receptor 1; assay: Fluorescence-based cell-based high throughput dose response assay to identify agonists of the human trace amine associated receptor 1 (TAAR1).; type: functional
# [17] = cells; type: functional, cell-based; remark: listed apart in the source
# [18] = biological target: T6, DNA repair and recombination protein RAD54-like (Homo sapiens, UniProt Q92698); assay: RAD54 Holliday junction migration blockers – biochemical, fluorescence, cherry-picked samples, dose series, confirmation (AID 651657); type: functional
# T6 sequence (Q92698 whole entry): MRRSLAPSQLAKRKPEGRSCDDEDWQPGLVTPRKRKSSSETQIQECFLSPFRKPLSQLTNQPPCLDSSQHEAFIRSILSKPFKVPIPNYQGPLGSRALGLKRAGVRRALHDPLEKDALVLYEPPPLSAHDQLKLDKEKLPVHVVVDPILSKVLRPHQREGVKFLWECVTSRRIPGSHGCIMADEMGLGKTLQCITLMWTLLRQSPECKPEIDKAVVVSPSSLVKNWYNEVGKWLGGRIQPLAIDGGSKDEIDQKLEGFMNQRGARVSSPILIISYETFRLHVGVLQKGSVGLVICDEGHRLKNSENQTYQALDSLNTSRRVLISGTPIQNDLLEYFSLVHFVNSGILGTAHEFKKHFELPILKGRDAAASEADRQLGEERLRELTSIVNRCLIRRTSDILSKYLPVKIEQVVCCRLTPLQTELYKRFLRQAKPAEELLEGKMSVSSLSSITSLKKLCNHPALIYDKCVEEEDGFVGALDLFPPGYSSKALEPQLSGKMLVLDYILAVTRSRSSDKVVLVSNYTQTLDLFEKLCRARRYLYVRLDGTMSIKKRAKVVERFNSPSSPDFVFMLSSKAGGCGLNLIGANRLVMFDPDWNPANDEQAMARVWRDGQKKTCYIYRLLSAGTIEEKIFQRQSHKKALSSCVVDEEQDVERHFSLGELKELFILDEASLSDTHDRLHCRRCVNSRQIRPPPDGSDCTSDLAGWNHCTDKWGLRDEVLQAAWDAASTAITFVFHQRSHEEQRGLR
# [19] = biological target: T7, DNA repair protein RAD52 homolog (Homo sapiens, UniProt P43351); type: functional, biochemical
# T7 sequence (P43351 whole entry): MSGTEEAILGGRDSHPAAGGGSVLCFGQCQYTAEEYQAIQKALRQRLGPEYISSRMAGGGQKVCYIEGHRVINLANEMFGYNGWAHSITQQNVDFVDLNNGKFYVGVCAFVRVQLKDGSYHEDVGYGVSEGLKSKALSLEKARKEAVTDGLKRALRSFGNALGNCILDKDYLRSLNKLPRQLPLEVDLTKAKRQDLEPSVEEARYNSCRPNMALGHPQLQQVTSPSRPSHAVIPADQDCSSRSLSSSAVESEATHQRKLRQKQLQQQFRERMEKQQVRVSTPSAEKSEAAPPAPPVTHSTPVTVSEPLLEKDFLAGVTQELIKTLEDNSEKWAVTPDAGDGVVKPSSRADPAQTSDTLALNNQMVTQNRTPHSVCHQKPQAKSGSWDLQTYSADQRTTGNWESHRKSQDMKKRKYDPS
# [20] = Counterscreen for activators of the function of SWI/SNF related, matrix associated, actin dependent regulator of chromatin, subfamily a, member 2 (SMARCA2, BRM): Luminescence-based cell-based high throughput dose response assay to identify non-selective compounds using the VP16 reporter assay.; type: functional
# [21] = biological target: SWI/SNF-related matrix-associated actin-dependent regulator of chromatin subfamily A member 2 (Homo sapiens, UniProt P51531); assay: Luminescence-based cell-based high throughput dose response assay to identify activators of the function of SWI/SNF related, matrix associated, actin dependent regulator of chromatin, subfamily a, member 2 (SMARCA2, BRM).; type: functional
# Chain of SWI/SNF-related matrix-associated actin-dependent regulator of chromatin subfamily A member 2 (P51531 whole entry): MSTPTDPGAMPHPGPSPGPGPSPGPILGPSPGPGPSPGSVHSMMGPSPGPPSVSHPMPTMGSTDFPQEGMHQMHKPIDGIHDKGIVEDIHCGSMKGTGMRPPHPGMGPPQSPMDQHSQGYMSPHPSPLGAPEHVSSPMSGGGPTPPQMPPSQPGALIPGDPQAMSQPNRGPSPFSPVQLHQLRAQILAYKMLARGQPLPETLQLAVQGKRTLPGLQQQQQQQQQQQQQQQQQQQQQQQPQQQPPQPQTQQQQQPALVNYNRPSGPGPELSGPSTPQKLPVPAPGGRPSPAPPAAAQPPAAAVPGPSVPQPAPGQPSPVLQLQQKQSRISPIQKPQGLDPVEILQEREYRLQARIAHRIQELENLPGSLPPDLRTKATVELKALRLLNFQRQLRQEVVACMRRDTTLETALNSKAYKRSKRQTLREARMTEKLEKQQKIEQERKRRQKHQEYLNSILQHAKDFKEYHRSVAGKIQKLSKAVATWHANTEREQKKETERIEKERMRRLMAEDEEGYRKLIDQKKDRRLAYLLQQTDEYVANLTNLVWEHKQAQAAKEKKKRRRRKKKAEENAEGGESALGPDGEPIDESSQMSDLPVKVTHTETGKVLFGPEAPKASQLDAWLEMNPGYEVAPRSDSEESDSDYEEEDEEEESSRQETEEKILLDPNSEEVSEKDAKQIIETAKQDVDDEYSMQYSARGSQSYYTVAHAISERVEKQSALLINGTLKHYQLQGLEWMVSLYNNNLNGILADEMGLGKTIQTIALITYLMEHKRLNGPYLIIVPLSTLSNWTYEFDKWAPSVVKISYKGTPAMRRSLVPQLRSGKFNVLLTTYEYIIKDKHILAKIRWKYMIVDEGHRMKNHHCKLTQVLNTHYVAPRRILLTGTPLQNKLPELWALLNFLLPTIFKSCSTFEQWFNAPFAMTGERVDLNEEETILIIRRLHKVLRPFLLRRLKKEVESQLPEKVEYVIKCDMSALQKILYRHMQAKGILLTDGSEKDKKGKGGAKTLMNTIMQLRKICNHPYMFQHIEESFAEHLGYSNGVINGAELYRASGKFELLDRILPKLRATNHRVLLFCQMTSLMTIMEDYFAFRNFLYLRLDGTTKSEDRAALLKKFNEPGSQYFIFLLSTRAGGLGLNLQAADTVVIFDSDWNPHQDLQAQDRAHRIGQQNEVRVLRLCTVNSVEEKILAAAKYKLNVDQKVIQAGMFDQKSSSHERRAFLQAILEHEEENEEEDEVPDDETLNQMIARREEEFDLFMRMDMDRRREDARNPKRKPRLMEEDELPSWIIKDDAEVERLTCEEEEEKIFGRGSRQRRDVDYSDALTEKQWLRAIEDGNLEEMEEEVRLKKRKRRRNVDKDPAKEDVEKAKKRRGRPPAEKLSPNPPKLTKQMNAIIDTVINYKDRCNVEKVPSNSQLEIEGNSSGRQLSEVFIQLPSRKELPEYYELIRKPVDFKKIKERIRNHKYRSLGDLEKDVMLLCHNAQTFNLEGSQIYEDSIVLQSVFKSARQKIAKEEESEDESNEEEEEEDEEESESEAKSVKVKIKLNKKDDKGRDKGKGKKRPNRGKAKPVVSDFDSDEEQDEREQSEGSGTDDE
structure (smiles),measurement,setting,value
Cc1ccc(C(S)=NCS(=O)(=O)c2ccc(C)cc2)cc1,IC50,[1],5.2 µM (active)
O=C(c1ccco1)N1CCN(C2CC(=O)N(c3ccccc3)C2=O)CC1 (centres undefined),AC50,[2],5.02 µM (active)
CCCOc1ccc2c3c(c(=O)oc2c1OCCC)CCC3,IC50,[3],11.4 µM (active)
same,AC50,[4],14.7 µM (active)
same,IC50,[5],7.13 µM (active)
Cc1ccc(-c2c(C(=O)O)c(C(=O)O)c3n2CSC3)cc1,IC50,[6],> 59.6 µM (inactive)
same,IC50,[7],> 59.6 µM (inactive)
same,IC50,[8],15.7 µM (inactive)
O=C(/C=C/NNC(=O)c1ccc(Cl)cc1)c1ccccc1,EC50,[9],> 120 µM (not active)
same,IC50,[10],> 100 µM (inactive)
same,IC50,[11],37.4 µM (active)
same,EC50,[12],> 120 µM (not active)
same,EC50,[13],49.6 µM (active)
COc1ccccc1CCNCc1ccc(OC)c(OC)c1OC,IC50,[14],10.5 µM (inactive)
same,EC50,[15],> 29.9 µM (inactive)
same,EC50,[16],2.37 µM (active)
same,IC50,[17],> 29.9 µM (inactive)
COc1ccc(C)c2sc(N(CCN(C)C)C(=O)c3ccc4ccccc4c3)nc12,AC50,[18],79.4 µM (active)
same,AC50,[19],14.1 µM (active)
O=C(CS(=O)(=O)Cc1ccccc1)N1CCc2ccccc2C1,IC50,[10],11.4 µM (active)
same,IC50,[11],6.67 µM (active)
N=C(N)NCCC[C@@H]1NC(=O)c2cc([N+](=O)[O-])cc(F)c2NCCCC[C@@H](C(N)=O)NC(=O)CNC1=O,AC50,[19],14.8 µM (active)
O=C(CSc1nnc2ccccn12)Nc1ncc(Cl)cc1Cl,EC50,[20],> 91.2 µM (inactive)
same,EC50,[21],> 91.2 µM (inactive)
